Results: ChEMBL document CHEMBL1201862, “PubChem BioAssay data set” (2004)
Activity calls are given as the source filed them.

Assays:
[1] = HEp-2 cell cytotoxicity, dose response, cytotoxicity control for RSV inhibitor project, HTS (AID 2410); type: functional; conditions: human respiratory syncytial virus
[2] = biological target: T1, Polyadenylate-binding protein 1 (Homo sapiens, UniProt P11940); test: PABP1 MLLE–PAM2 interaction inhibitors, dose response, miRNA deadenylation inhibitor project, biochemical, fluorescence polarization, Cy5-PAM2 peptide, secondary (AID 602260); type: functional; conditions: read-out: IC50_Mean
[3] = biological target: T1, Polyadenylate-binding protein 1; test: PABP1 MLLE–PAM2 binding inhibitor potency, dose response, biochemical, fluorescence polarization, FITC-PAM2 peptide (AID 602259); type: functional; conditions: read-out: IC50_Mean
[4] = Shn3 3'UTR reporter inhibitors, dose response, cell-based, Clone20 osteoblasts, firefly luciferase, cherry-picked (AID 624132); type: functional;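 also: firefly luciferase luminescence from reporter carrying the Shn3 3'UTR in osteoblasts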
[5] = HepG2 cell cytotoxicity, dose response, cytotoxicity control for Shn3 inhibitor project, CellTiter-Glo, cherry-picked (AID 624134); type: functional, cell-based
[6] = control 3'UTR Renilla luciferase suppression, dose response, counter-screen for Shn3 inhibitor project, cell-based, Clone20-Shn3RL, cherry-picked (AID 624133); type: functional
cells = type: functional
[7] = biological target: T2, Short transient receptor potential channel 4 (Mus musculus, UniProt Q9QUQ5); test: mouse TRPC4 channel inhibitors, dose response, cell-based, HEK293 TRPC4/mu-opioid, Fluo-4 calcium (AID 434942); type: functional;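 also: potency of inhibitors blocking the TRPC4 calcium response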
T2 sequence (Q9QUQ5 whole entry): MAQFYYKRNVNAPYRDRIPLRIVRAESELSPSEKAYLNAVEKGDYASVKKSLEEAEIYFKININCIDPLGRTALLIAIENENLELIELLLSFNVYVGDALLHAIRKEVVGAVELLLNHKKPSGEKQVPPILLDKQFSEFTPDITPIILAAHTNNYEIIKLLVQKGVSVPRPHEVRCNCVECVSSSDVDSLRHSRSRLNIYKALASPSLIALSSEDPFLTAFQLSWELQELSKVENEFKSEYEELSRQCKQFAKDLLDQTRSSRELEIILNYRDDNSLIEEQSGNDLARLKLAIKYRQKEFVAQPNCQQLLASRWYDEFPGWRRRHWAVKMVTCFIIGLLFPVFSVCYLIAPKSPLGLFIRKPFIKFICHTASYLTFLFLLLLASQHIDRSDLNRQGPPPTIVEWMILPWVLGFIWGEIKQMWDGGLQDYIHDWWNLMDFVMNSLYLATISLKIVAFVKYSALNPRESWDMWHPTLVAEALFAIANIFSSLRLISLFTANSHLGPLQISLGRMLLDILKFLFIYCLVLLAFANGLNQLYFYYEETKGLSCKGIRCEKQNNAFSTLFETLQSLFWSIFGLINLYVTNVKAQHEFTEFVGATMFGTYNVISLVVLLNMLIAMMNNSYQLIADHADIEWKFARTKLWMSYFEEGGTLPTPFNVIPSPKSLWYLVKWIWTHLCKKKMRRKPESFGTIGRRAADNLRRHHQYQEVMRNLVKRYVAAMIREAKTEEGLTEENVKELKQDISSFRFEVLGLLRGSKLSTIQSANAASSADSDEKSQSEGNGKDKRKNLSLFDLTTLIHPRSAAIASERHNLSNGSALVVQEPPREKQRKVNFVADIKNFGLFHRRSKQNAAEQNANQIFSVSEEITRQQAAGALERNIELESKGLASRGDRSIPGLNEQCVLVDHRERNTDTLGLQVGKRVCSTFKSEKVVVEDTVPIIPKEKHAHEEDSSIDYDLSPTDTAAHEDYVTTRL

[8] = biological target: T2, Short transient receptor potential channel 4; test: mouse TRPC4 channel activators, dose response, cell-based, HEK293 TRPC4/mu-opioid, Fluo-4 calcium (AID 434937); type: functional
Protein skinhead-1 = biological target: T3, Protein skinhead-1 (Caenorhabditis elegans, UniProt P34707); type: functional
T3 sequence (P34707 whole entry): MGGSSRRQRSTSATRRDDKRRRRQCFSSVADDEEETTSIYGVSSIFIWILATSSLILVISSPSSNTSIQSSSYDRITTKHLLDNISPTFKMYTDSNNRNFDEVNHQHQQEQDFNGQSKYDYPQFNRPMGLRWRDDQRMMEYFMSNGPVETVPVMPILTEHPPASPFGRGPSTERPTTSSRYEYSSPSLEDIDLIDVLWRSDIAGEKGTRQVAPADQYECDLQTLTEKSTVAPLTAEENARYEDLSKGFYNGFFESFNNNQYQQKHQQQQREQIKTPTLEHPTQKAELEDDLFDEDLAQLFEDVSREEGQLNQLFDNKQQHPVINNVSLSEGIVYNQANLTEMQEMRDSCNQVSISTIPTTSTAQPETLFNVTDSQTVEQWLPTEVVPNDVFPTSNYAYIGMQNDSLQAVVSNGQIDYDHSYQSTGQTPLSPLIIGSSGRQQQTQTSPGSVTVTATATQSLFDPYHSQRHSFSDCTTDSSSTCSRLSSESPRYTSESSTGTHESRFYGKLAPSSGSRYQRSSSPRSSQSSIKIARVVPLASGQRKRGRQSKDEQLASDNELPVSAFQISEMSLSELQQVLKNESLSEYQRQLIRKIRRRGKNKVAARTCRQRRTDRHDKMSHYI

[9] = inhibitors of intracellular T. cruzi replication, confirmation, NIH3T3 host cells, beta-gal luminescence (AID 2044); type: functional, cell-based;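 also: intracellular parasites grown in NIH/3T3 mouse fibroblasts as host cells; luminescent beta-galactosidase reporter signal from transgenic T. cruzi replicating inside host cells; inhibitors lower the luminescence signal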
[10] = cytotoxicity toward NIH3T3 fibroblasts, dose response, counter-screen, cell-based, ATP luminescence, mouse fibroblasts (AID 2010); type: functional;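 also: cells exposed to compound for about 90 hours before reading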
Cytochrome P450 2C9 = Cytochrome P450 2C9 (Homo sapiens, UniProt P11712)
Streptococcus = test: Group A Streptococcus viability loss, dose response, counter-screen for streptokinase expression inhibitor project, luminescence, BacTiterGlo (AID 1915); type: functional, organism-based;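 also: potency for reduction of bacterial viability or growth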
[11] = test system: Streptococcus sp. 'group A'; test: growth inhibition of control SK(-) GAS strain, dose response, counter-screen for streptokinase expression inhibitor project, luminescence, kanamycin, BacTiterGlo, confirmation (AID 1900); type: functional, organism-based
Streptokinase A = biological target: T4, Streptokinase A (Streptococcus pyogenes serotype M1, UniProt P10520); test: S. pyogenes streptokinase expression inhibitors, potency, dose response, plasminogen activation absorbance, OD405 (AID 1914); type: functional, Streptococcus pyogenes M1 GAS;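 also: secreted streptokinase activity via plasminogen activation per viability signal from cell pellet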
T4 sequence (P10520 whole entry): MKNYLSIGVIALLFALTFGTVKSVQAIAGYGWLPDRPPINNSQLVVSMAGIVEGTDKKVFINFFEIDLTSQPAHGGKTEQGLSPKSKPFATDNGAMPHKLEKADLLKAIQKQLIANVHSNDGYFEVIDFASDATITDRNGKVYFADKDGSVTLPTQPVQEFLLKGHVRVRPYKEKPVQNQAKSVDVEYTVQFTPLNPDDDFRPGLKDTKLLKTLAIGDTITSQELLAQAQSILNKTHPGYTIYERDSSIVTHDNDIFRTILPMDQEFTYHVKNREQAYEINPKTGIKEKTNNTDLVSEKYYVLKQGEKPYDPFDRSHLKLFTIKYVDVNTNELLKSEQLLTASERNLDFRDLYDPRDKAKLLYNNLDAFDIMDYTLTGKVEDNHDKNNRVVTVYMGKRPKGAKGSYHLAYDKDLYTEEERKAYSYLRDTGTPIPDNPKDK

[12] = biological target: FAD-linked sulfhydryl oxidase ALR (Homo sapiens, UniProt P55789); test: inhibitors of human ALR sulfhydryl oxidase, dose response, biochemical, H2O2 detection, luminescence, cherry-pick (AID 493248)
Genome polyprotein = Genome polyprotein (dengue virus type 2, UniProt P29990); test: Dengue-2 NS5 methyltransferase inhibitors, primary screen, biochemical, confirmation dose response (AID 588689); type: functional
Genome polyprotein, sequence (P29990 2492-3391 limits assumed): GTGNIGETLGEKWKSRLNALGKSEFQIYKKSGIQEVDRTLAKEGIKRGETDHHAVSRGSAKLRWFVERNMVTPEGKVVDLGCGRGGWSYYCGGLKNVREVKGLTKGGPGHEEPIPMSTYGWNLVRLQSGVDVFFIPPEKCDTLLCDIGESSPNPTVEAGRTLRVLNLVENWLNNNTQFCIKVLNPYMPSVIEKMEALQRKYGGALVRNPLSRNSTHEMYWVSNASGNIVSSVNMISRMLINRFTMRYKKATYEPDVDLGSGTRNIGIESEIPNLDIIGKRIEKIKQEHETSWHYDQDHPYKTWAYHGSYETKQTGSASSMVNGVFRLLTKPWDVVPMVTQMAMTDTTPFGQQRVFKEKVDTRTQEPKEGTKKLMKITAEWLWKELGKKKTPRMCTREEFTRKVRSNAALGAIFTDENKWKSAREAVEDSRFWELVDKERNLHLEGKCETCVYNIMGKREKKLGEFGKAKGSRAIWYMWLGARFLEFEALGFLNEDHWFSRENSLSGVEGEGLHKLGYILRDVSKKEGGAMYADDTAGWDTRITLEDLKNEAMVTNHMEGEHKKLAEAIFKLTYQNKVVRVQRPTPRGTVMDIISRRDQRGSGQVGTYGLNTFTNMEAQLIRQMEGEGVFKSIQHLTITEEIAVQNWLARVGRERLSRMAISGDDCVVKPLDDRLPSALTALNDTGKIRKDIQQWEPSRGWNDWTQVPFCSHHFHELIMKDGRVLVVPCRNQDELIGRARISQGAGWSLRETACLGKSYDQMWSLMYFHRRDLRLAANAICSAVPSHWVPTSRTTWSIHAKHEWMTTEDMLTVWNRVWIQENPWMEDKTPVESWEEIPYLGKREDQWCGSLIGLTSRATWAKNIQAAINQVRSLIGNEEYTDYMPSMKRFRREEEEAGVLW

T1 sequence (P11940 whole entry): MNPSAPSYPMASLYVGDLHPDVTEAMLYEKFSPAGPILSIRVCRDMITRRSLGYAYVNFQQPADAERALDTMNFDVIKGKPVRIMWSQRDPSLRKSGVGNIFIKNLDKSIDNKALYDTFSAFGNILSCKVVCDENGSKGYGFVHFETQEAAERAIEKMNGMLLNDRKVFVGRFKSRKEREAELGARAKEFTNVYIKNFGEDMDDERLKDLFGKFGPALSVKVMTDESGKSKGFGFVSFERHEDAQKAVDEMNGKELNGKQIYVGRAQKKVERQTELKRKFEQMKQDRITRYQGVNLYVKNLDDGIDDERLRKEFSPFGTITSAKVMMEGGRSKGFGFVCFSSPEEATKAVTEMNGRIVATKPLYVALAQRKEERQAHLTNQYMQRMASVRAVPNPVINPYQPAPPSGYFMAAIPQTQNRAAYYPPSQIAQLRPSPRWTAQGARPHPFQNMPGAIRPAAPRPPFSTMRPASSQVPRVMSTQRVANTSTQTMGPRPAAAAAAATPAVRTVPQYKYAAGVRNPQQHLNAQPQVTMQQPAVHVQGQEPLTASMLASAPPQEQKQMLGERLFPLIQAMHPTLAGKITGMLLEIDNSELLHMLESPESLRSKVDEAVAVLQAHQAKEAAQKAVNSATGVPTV
Cytochrome P450 2C9, sequence (P11712 whole entry): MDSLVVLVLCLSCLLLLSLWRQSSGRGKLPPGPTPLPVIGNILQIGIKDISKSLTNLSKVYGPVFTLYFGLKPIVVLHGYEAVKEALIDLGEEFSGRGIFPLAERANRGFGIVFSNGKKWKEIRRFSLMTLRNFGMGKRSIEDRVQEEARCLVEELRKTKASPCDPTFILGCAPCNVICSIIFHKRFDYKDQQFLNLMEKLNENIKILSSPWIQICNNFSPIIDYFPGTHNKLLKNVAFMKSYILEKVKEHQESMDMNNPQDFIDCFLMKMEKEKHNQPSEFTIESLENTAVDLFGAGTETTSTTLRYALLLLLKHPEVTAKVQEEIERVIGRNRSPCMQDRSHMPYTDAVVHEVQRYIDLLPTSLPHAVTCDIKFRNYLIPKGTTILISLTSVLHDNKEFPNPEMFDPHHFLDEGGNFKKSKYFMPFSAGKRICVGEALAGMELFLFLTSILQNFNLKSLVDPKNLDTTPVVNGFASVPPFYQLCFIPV
FAD-linked sulfhydryl oxidase ALR, sequence (P55789 whole entry): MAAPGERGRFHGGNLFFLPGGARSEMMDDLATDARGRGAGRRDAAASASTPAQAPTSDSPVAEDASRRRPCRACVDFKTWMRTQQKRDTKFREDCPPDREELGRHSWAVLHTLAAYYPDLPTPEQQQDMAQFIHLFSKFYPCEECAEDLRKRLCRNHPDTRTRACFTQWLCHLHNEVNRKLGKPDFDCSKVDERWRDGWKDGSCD

## CCN(CC)C(=O)Oc1ccc2cc(Br)ccc2c1
[1]
  CC50: 37 µM (active)

## O=C1NN(CCO)C(=S)Nc2ccccc21
[2]
  IC50: > 66 µM (inactive)
[3]
  IC50: > 66 µM (inactive)

## C=C1C(=O)OC2C=C(CO)C3OC3C3OC3(C)CC(OC(=O)/C(=C/C)COC(C)=O)C12 (stereo not given)
[4]
  AC50: 5.89 µM (active)
[5]
  AC50: 32.2 µM (active)
[6]
  AC50: 9.84 µM (active)

## COc1ccc(-n2c(C)cc(C(=O)CSc3nnc(-c4cccs4)o3)c2C)cc1
[4]
  AC50: 5.03 µM (active)
[5]
  AC50: 48.6 µM (active)
[6]
  AC50: 5.62 µM (active)

## Cc1ccc(-c2noc(CCCC(=O)Nc3cccnc3)n2)cc1
cells
  IC50: 37.4 µM (active)

## Cc1cc(C)c2c(=O)c(C#N)coc2c1
[2]
  IC50: > 66 µM (inactive)
[3]
  IC50: > 66 µM (inactive)

## CC(=O)NC(=S)Nc1cccc2c(C)cc(C)nc12
[1]
  CC50: > 50 µM (active)

## COC1=CC(=NCl)C=CC1=NCl
[2]
  IC50: > 66 µM (inactive)
[3]
  IC50: 49.9 µM (inactive)

## Cc1ccc([N+](=O)[O-])cc1/N=C(\c1cccc(Br)c1)N1CCOCC1
[1]
  CC50: 40.2 µM (active)

## COc1ccccc1N1CCN(/N=C/c2c(C)nn(-c3ccccc3)c2C)CC1
[2]
  IC50: > 66 µM (inactive)
[3]
  IC50: > 66 µM (inactive)

## CCOC(=O)C1(CCc2ccccc2)CCN(Cc2ccc(O)cc2)CC1
[7]
  EC50: 2.99 µM (active)
[8]
  EC50: 5.31 µM (active)

## Cc1[nH]c2ccccc2c1C(=O)C(C)OC(=O)c1ccc([N+](=O)[O-])o1 (stereo not given)
cells
  IC50: < 0.1 µM (active)

## CC(=O)/N=C1\SC2CS(=O)(=O)CC2N1c1cccc(Cl)c1Cl (stereo not given)
Protein skinhead-1
  IC50: > 100 µM (inactive)

## CCO/C(O)=C/c1nc2ccccc2oc1=O
cells
  IC50: 2.88 µM (active)

## Cc1onc(-c2ccccc2)c1C(=O)Nc1nc2c(s1)C(=O)CC(C)(C)C2
Protein skinhead-1
  IC50: > 100 µM (inactive)

## Cc1ccn2nc(S(=O)(=O)Nc3c(F)cccc3F)nc2n1
cells
  IC50: 11.2 µM (active)

## CC1N(C)c2cc(NC(=O)c3cccs3)c(P(=O)(Nc3ccc([N+](=O)[O-])cc3)N3CCOCC3)cc2C1(C)C (stereo not given)
[1]
  CC50: 32.1 µM (active)
[9]
  EC50: 1.98 µM (active)
[10]
  EC50: > 30 µM (not active)

## O=C(NC(=S)Nc1ccc(CN2CCCCC2)cc1)c1cc2ccccc2o1
Protein skinhead-1
  IC50: 32.2 µM (active)

## CCN(CC)CCC(c1cc(OC)c(OC)c(OC)c1)c1c(OC)cc(OC)c2c(C)cc(=O)oc12 (stereo not given)
Protein skinhead-1
  IC50: > 100 µM (inactive)

## COC(=O)c1ccc(CCc2cc(O)ccc2O)cc1
[4]
  AC50: 3.14 µM (active)
[5]
  AC50: > 70 µM (inactive)
[6]
  AC50: 14.5 µM (active)
Cytochrome P450 2C9
  AC50: 7.94 µM (inconclusive)

## CC(C)C1OC2c3cccc4cccc(c34)C2N1c1ccccc1 (stereo not given)
Streptococcus
  EC50: > 150 µM (not active)
[11]
  EC50: 3.22 µM (active)
[2]
  IC50: > 66 µM (inactive)
Streptokinase A
  EC50: 2.61 µM (active)
[3]
  IC50: > 66 µM (inactive)

## CN(C)/C=C1\C(=O)N(c2ccc([N+](=O)[O-])cc2)N=C1c1ccccc1
[1]
  CC50: 31.8 µM (active)
[7]
  EC50: 15 µM (active)
[8]
  EC50: 10.6 µM (active)

## Cc1cc(C)c(C(=O)COC(=O)c2ccc([N+](=O)[O-])o2)cc1C
cells
  IC50: 1 µM (active)

## Cc1ccc(-c2csc(N=C(N)N)n2)cc1
[12]
  AC50: 1.05 µM (active)
[1]
  CC50: 46.4 µM (active)

## NC(=O)c1cccc2c1-c1ccccc1/C2=N/NC(N)=S
[2]
  IC50: > 66 µM (inactive)
[3]
  IC50: > 66 µM (inactive)

## Cc1cc(=O)c2c(o1)C(=O)c1occc1C2=O
Genome polyprotein
  IC50: 62.4 µM (active)

## COC(=O)COc1ccc(S(=O)(=O)N2CCCCCC2)cc1
cells
  IC50: 33.5 µM (active)

## COc1ccc(CCNC(=O)c2cc(-c3ccc(C)c(C)c3O)[nH]n2)cc1OC
[1]
  CC50: > 50 µM (active)

## CCOc1ccccc1C(=O)Nc1ccc(-n2nncc2C(C)(C)C)cc1
Protein skinhead-1
  IC50: > 100 µM (inactive)

## Oc1cccc(C(=S)N2CCCCC2)c1
[2]
  IC50: > 66 µM (inactive)
[3]
  IC50: > 66 µM (inactive)

## CCC(C)(C)c1nnc(NC(=O)CCC2CCCCC2)s1
Protein skinhead-1
  IC50: > 100 µM (inactive)

## Cc1ccc(Sc2cc(C(=O)NCCN(C)C)c3ccccc3n2)cc1
[8]
  EC50: 2.66 µM (active)
